pIC50: −log10 of the molar value. Where “and” joins values, the source holds several entries; their conditions need not be identical. Identical values can stand only once. Like-named read-outs stand apart in the source and are kept apart here.
What was measured:
[1] = target: T1, Menin/MLL (terbium chelate-labeled menin, FITC-MBM1 peptide) (Homo sapiens, UniProt O00255, T541A); assay: Menin/MLL homogenous time-resolved fluorescence (HTRF) assay; format: binding; conditions: for pIC50: averaged values over all measurements, read-out: Menin HTRF assay (IC50)
T1 construct: Menin (a.a. 1-610-6×his tag) was labeled with terbium cryptate as follows
T1 sequence (O00255 with tags, fused parts or gaps T541A): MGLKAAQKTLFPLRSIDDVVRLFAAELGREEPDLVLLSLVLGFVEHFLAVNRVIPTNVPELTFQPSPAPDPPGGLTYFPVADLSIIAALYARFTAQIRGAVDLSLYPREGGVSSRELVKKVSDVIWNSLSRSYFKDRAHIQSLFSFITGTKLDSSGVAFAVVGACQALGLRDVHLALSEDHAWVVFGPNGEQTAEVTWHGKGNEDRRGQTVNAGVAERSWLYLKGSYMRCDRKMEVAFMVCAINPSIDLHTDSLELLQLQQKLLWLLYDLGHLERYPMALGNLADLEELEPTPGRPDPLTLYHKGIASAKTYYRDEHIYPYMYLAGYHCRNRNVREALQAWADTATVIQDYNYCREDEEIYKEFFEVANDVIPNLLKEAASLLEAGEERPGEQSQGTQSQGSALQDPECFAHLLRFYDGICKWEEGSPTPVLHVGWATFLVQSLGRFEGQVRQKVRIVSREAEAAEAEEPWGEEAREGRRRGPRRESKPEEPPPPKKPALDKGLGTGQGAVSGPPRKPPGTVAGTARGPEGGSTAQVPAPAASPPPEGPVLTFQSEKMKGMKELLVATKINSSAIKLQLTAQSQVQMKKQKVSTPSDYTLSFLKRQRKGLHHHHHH
Summary of the method: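 Compound preincubated 5 min with terbium-cryptate-labeled menin (aa 1-610, His-tagged; 100 pM final), then 75 nM FITC-MBM1 peptide added, 15 min at ambient temperature; 0.5% DMSO, Tris pH 7.5 buffer. HTRF ratio 520/490 nm; % inhibition vs saturating competitor, IC50 from 11-point three-fold titration from 31 μM.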

[2] = test system: MOLM14; assay: Proliferation assay (spheroid assay) MOLM14; format: cell-based, human; conditions: for pIC50: Homo sapiens, MOLM-14, MOLM14, averaged values over all measurements, read-out: Spheroid assay MOLM14 (IC50)
Summary of the method: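 Cells were grown as spheroids in ultra-low attachment round-bottom wells with compound (0.3% DMSO) for 8 d at 37 °C, imaged every 4 h, with confluence as spheroid size. AUC of confluence versus time (t=0 baseline) was expressed as % of DMSO control, and absolute IC50 came from a least-squares nonlinear fit.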

SMILES	pIC50 [1]	pIC50 [2]	IC50 ([1]; individual measurements (not averaged), read-out: (3) Menin HTRF assay (IC50 (nM)))	IC50 ([2]; MOLM14, 8 d, individual measurements (not averaged), read-out: (2) Spheroid assay MOLM14 (IC50 (μM)))
Fc1ccccc1CN1CC[C@H]2CN(c3ncnc4sc(CC(F)(F)F)cc34)CC[C@H]21 (single isomer, unassigned) [Compound 6]	6.32	5.48		
FC(F)(F)Cc1cc2c(N3CC[C@H]4[C@H](CCN4Cc4ccc[nH]4)C3)ncnc2s1 (single isomer, unassigned) [Compound 8]			48 nM	5.7 µM and > 15 µM
FC(F)(F)Cc1cc2c(N3CCC4C(CCN4Cc4ccccc4)C3)ncnc2s1 (centres unmarked) [Compound 1]	6.95	5.36		
FC(F)(F)Cc1cc2c(N3CCC4C3CCN4Cc3ccccc3)ncnc2s1 (centres unmarked) [Compound 2]	6.10	5.01		
